Results taken from patent US20220112217A1, “PYRAZOLOPYRIMIDINE DERIVATIVE AND USE THEREOF AS PI3K INHIBITOR” (MEDSHINE DISCOVERY INC., priority 2018, published 2022).
Read-outs that look alike come from different tables or passages of the source.

Tests used:
PI3K delta = PI3K delta (Homo sapiens, UniProt O00329); experiment: In vitro enzyme activity assay (ADP-Glo lipid kinase), PI3K delta; conditions: PI3Kδ IC50, ATP 40 μM, PIP2:3PS 50 μM, 120 min;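 further: kinase reaction run at 23 °C, then leftover ATP depleted and the ADP formed turned back into ATP, with the luciferin/luciferase signal read as kinase activity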
Chain of PI3K delta (O00329 whole entry): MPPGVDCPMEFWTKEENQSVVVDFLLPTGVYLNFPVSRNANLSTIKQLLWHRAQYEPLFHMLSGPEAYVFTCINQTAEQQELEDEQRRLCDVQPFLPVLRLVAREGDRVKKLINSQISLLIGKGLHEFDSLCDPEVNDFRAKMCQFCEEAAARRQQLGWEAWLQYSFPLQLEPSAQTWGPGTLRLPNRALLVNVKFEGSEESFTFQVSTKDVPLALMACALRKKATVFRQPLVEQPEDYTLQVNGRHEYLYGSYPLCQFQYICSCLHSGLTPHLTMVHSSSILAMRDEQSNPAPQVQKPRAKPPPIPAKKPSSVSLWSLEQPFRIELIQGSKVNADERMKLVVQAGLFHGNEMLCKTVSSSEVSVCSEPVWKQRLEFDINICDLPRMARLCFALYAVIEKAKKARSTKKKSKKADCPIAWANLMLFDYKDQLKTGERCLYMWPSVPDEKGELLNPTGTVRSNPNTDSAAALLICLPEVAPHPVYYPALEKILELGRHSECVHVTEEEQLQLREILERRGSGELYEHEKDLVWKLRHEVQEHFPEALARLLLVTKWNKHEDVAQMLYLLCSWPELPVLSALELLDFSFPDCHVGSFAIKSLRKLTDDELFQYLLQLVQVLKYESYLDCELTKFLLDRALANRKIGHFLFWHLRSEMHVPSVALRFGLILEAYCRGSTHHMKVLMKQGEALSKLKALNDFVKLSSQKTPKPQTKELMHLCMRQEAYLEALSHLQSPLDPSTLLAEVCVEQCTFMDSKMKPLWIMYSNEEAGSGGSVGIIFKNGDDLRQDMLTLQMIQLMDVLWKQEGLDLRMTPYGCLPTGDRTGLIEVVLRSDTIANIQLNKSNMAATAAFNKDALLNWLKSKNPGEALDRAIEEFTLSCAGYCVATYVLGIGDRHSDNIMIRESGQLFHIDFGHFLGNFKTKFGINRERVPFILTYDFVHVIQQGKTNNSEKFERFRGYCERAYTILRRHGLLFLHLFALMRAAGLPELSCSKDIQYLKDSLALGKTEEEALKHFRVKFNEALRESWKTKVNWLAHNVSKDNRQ
Chain of PI3K delta (P27986 whole entry partner): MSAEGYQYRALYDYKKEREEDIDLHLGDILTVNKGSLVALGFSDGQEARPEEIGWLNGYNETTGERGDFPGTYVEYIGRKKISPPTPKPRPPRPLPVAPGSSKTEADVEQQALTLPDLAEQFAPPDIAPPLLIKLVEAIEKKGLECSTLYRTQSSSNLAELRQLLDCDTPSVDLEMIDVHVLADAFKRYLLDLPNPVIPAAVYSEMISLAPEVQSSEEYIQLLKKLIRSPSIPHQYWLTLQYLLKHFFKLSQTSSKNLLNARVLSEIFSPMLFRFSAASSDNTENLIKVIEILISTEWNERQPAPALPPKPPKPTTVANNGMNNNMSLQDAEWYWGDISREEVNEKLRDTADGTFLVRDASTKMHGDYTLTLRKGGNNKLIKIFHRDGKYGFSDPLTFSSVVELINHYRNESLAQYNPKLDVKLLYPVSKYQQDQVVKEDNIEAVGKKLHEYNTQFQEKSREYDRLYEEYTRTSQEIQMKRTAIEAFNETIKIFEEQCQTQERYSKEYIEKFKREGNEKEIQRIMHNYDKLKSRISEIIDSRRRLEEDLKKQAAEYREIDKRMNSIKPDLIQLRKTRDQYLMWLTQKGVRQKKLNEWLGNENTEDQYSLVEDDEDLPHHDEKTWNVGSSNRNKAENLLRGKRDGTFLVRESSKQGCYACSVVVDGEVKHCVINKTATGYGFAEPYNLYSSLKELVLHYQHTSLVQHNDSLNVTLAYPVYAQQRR
Description: (§1) An appropriate substrate and ATP were incubated at a suitable condition for lipid kinase reaction, followed by a two-step detection of kinase activity using an ADP-Glo™ kit. Step I: The kinase reaction was terminated and residual ATP was completely removed, leaving ADP only; Step II: A kinase assay reagent was added to convert ADP to ATP by a luciferin/luciferase reaction. Finally, a fluorescence output value was detected and converted into kinase activity.
(§2) • 2) Kit: ADP-Glo™ lipid kinase and PIP2:3PS kit (Promega #V1792)
The kit comprises: 1 mM PIP2:3PS, 10× lipid dilution buffer, 1 M magnesium chloride, 10 mM ATP, 10 mM ADP, ADP-Glo reagent, detection buffer and substrate. • 3) Plate: OptiPlate-384, white and transparent (PerkinElmer #6007299) Reagent preparation: • 1) 10x reaction buffer: 500 mM HEPES (4-(2-hydroxyethyl)-1-piperazineethanesulfonic acid), pH 7.5, 500 mM NaCl, 9 mM MgCl2; BSA: 10% stock solution, prepared in-house • 2) Condition for final test system: 1× reaction system: 50 mM HEPES, 50 mM NaCl, 3 mM MgCl2, 0.01% BSA (prepared on the day of experiment), 1% DMSO (v/v) +/−compound • 3) Reaction system: 3 μL of enzyme and substrate mixture (1:1) +2 μL of ATP/MgCl2 mixture +5 μL of ADP-Glo reagent +10 μL detection reagent.
The specific experimental procedures are as follows: • 1) Dilution: 50 nL of 100× compound/DMSO solution were transferred into a test plate using Echo • For PI3Kα, the compound was serially diluted by three fold from the highest concentration 0.111 mM to the 10th concentration. • For PI3Kβ/PI3Kδ/PI3Kγ, the compound was serially diluted by three fold from the highest concentration of 1.11 mM to the 10th concentration. • 2) Kinase reaction: • (1) The target compounds were prepared. 50 nL of 100× compound solution or DMSO was added to the corresponding plate • (2) A 3.33 × reaction buffer was prepared • (3) A 3.33× PIP2:3PS solution were prepared; the PIP2:3PS solution should be thawed by vortex for at least 1 min before use • (4) An ATP solution containing 5.25 mM MgCl2 was prepared • (5) 3.33× PI3Kα/PI3Kβ/PI3Kδ/PI3Kγ solutions were prepared • (6) The lipid kinase solution and PIP2:3PS solution were mixed at a volume ratio of 1:1 • (7) The 3.33 × lipid kinase buffer and PIP2:3PS solution were mixed at a volume ratio of 1:1 • (8) 3 μL of the mixed solution of reaction buffer and PIP2:3PS was added to Columns 1 and 2 of the plate • (9) 3 μL of the mixed solution of the enzyme and PIP2:3PS was added to the wells of the plate other than Columns 1 and 2, and was centrifuged for 10 s (1000 rpm). The mixture was incubated at 23° C. for 20 min • (10) 2 μL of ATP solution was added, and the mixture was centrifuged at 1000 rpm and was shaken to mix well • (11) The plate was covered, shaken for about 30 s, and incubated for 2 h at 23° C. • (12) 5 μL of ADP-Glo reagent containing 10 mM MgCl2 was added • (13) The mixture was centrifuged at 1000 rpm for 10 s, covered and shaken for about 30 s, and incubated at 23° C. for 60 min • (14) 10 μL of kinase assay reagent was added • (15) The mixture was centrifuged at 1000 rpm for 10 s, and incubated at 23° C. for 60 min • (16) Fluorescence values were measured by an Envision system. • 2.

PI3K gamma = PI3K gamma (Homo sapiens, UniProt P48736); experiment: In vitro enzyme activity assay (ADP-Glo lipid kinase), PI3K gamma; conditions: PI3Kγ IC50, ATP 25 μM, PIP2:3PS 50 μM, 120 min
Chain of PI3K gamma (P48736 whole entry): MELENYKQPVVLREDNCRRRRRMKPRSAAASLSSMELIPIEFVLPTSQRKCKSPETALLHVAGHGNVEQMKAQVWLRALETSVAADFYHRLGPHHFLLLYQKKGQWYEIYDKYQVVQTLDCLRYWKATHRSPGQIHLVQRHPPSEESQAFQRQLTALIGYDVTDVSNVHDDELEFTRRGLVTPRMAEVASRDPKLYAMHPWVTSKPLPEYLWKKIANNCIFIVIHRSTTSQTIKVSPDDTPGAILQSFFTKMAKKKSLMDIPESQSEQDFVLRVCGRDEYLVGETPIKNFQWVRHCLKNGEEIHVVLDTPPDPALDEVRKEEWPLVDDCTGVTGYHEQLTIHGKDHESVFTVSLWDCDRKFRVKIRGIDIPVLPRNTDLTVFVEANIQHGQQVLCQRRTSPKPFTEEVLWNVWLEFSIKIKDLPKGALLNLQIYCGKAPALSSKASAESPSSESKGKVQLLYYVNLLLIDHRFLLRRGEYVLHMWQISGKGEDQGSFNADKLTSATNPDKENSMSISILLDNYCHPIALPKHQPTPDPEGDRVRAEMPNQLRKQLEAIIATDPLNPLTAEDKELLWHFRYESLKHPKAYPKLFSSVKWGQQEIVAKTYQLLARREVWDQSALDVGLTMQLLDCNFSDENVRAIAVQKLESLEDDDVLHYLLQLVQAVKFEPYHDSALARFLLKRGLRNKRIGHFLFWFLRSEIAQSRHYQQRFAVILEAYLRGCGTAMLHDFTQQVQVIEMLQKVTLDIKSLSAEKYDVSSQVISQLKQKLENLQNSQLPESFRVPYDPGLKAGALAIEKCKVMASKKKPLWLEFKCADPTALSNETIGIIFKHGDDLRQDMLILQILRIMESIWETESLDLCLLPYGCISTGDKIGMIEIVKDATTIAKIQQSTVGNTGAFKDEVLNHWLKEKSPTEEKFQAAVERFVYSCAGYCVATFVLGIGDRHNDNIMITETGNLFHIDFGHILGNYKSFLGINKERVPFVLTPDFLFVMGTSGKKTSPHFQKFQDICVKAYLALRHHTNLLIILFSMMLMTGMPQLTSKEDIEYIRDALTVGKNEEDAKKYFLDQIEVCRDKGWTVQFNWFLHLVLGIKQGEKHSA
Description: as §1, §2
(§3) The mixture was incubated at 23° C. for 20 min • (10) 2 μL of ATP solution was added, and the mixture was centrifuged at 1000 rpm and was shaken to mix well • (11) The plate was covered, shaken for about 30 s, and incubated for 2 h at 23° C. • (12) 5 μL of ADP-Glo reagent containing 10 mM MgCl2 was added • (13) The mixture was centrifuged at 1000 rpm for 10 s, covered and shaken for about 30 s, and incubated at 23° C. for 60 min • (14) 10 μL of kinase assay reagent was added • (15) The mixture was centrifuged at 1000 rpm for 10 s, and incubated at 23° C. for 60 min • (16) Fluorescence values were measured by an Envision system. • 2. […] The mixture was incubated at 37° C./CO2 for 10 min. • 5) The compound was removed by pipette. Lysis buffer was added at 50 μL/well, and the cells wereincubated on a shaker for 30 min. • 6) After the cells were completely lysed, 16 μL of lysate was transferred to a 384-well plate and 4 μL of prepared AC+D2 in the kit was added. (AC: Eu3+-cryptate antibody binds to phosphorylated AKT, while D2 binds to non-phosphorylated AKT) The mixture was incubated at room temperature for 4 h.

[1] = In vivo DMPK study, single dose in female Balb/c mice; conditions: for Cmax / half-life: mouse, plasma; for Cmax: oral 3 mg/kg, female Balb/c mice; for Oral DNAUC (dose-normalized area under curve) / half-life: mice; for half-life: female, Balb/c, 1 mg/kg, note lists it as an intravenous parameter, read-out: T1/2 (half-life) (converted)
Description: Objective: To evaluate the plasma concentration of the compounds and pharmacokinetics after a single dose in female Balb/c mice.
Procedures: 8 healthy adult female Balb/c mice were randomized, 4 for intravenous administration and 4 for oral administration. The compounds were mixed with a proper amount of vehicle for intravenous injection (DMSO/PEG200/water (5:45:50 v/v/v)). The mixture was vortexed and treated with ultrasound to give a 1.0 mg/mL clear solution. The clear solution was filtered through a microporous membrane filter for later use. For the oral group, the vehicle was 0.5% MC/0.2% Tween 80. The compound was mixed with the vehicle, and the mixture was vortexed and ultrasonically treated to give 1.0 mg/mL uniform suspension for later use. The mice were administered intravenously at 1 mg/kg or orally at 3 mg/kg. Whole blood was collected at certain time points, and plasma was separated. The drug concentration was measured by LC-MS/MS, and pharmacokinetic parameters were calculated using
Phoenix WinNonlin software (Pharsight, USA).

PI3K beta = PI3K beta (Homo sapiens, UniProt P42338); experiment: In vitro enzyme activity assay (ADP-Glo lipid kinase), PI3K beta
Chain of PI3K beta (P42338 whole entry): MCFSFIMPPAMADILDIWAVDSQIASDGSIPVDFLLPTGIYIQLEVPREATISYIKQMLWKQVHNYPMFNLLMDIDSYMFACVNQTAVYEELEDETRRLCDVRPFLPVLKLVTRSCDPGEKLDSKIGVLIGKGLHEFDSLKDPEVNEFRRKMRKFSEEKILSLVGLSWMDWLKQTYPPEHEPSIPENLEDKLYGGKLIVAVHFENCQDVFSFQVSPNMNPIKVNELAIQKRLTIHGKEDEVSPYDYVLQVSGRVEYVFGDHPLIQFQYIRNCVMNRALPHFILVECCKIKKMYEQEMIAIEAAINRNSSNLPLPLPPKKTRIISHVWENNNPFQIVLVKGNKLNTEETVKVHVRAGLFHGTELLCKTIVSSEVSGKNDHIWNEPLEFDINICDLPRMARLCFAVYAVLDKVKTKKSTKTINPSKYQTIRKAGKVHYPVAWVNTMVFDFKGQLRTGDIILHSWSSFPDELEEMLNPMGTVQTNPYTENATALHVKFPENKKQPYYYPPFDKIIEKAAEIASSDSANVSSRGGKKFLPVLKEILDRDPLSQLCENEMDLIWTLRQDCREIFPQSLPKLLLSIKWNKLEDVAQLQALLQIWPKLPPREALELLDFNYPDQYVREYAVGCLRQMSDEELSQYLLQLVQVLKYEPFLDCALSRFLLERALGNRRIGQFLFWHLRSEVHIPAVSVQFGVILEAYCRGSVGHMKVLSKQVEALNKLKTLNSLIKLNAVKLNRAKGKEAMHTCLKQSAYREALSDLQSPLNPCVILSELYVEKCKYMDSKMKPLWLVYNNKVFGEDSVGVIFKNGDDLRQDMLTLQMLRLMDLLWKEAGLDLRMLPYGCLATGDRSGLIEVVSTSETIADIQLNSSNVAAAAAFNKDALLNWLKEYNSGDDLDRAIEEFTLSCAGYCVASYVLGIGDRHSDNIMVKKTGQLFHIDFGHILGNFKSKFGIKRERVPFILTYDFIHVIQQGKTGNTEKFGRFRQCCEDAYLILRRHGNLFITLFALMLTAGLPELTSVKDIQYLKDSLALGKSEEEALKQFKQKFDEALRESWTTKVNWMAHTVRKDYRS
Chain of PI3K beta (P27986 whole entry partner): as the sequence (P27986 whole entry partner) above
Description: as §1, §2, §3

PI3K alpha = PI3K alpha (Homo sapiens, UniProt P42336); experiment: In vitro enzyme activity assay (ADP-Glo lipid kinase), PI3K alpha
Chain of PI3K alpha (P42336 whole entry): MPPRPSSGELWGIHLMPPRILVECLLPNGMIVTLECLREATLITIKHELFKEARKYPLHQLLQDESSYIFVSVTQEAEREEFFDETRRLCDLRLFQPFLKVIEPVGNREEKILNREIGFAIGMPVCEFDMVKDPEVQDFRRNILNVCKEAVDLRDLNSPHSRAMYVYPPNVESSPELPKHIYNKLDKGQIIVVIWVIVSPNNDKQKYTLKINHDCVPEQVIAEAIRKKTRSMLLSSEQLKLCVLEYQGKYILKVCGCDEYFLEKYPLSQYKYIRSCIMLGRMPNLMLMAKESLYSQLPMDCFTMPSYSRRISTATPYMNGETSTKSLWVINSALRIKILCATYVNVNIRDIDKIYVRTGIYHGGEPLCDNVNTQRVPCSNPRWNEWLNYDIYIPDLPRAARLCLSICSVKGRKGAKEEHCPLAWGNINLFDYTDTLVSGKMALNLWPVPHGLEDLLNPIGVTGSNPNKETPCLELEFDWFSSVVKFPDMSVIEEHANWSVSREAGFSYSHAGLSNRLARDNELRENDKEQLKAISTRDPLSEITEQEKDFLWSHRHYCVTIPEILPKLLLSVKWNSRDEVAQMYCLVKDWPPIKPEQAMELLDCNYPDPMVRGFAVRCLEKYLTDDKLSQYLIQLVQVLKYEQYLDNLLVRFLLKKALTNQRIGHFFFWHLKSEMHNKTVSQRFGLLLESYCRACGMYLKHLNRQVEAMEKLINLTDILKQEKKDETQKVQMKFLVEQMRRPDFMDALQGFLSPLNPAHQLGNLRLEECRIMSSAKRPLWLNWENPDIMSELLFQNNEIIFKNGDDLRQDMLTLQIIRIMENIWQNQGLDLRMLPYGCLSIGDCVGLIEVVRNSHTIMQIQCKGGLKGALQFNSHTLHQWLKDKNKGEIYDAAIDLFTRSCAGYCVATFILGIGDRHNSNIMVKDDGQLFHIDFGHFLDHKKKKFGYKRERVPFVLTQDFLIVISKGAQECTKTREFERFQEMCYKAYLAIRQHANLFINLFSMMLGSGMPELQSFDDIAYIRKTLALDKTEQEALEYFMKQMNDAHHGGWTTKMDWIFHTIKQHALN
Chain of PI3K alpha (P27986 whole entry partner): as the sequence (P27986 whole entry partner) above
Description: as §1, §2, §3

TMD-8 cell = TMD-8 cell viability test (CellTiter-Glo, 72 h); format: cell-based; conditions: Homo sapiens, TMD8
Description: 7) After incubation, readings at 620 and 665 nm on EnVingen were recorded. • <2> TMD-8 cell viability test • 1) Cell Culture
Cells were regularly passaged. Cells at logarithmic growth phase were transferred to the plate. • 2) Plating • (1). Cells were stained with trypan blue and viable cells were counted. • (2). Cell concentration was adjusted to 7000 cells/well • (3). 90 μL of cell suspension was added to each well of the plate and cell-free medium was added to blank control wells. • (4). The plate was incubated overnight at 37° C., 5% CO2 and 100% relative humidity in an incubator. • 3) Preparation of Plate Containing Compound Stock
(1). Preparation of plate containing 400× compound stock: Compounds were diluted from the highest concentration gradient to lowest concentration with DMSO. • 4) Preparation of 10× compound working solution and treatment • (1). Preparation of 10× compound working solution: 78 μL of cell culture medium was added to a V-bottom 96-well plate, and 2 μL of compound stock solution was pipetted from the plate containing 400× compound stock into the cell cultures of 96-well plate. 2 μL of DMSO was added to the vehicle control wells and blank control wells. After compounds or DMSO was added, the mixture was well mixed by a pipette. • (2). 10 μL of DMSO-cell culture medium mixture solution was added to the vehicle control wells and blank control wells. The final concentration of DMSO was 0.25%. • (3). The 96-well cell plate was incubated in the incubator for another 72 h. • 5) CellTiter-Glo Luminescent Cell Viability Assay
The following procedure was performed according to the instructions of Promega CellTiter-Glo luminescent cell viability assay kit (Promega-G7573). • (1). CellTiter-Glo buffer was thawed and let stand at room temperature. • (2). The CellTiter-Glo substrate was let stand at room temperature. • (3). The CellTiter-Glo buffer was added to a flask of CellTiter-Glo substrate to dissolve the substrate, thereby preparing a CellTiter-Glo working solution. • (4). The solution was vortexed to completely dissolve the substrate. • (5). The plate was incubated at room temperature for 30 min for equilibration. • (6). 50 μL (equal to half the volume of cell culture medium in each well) of CellTiter-Glo working solution was added to each well. The plate was covered by aluminum foil to avoid light. • (7). The plate was shaken on an orbital shaker for 2 min to induce cell lysis. • (8). The plate was let stand at room temperature for 10 min to stabilize the luminescence signals. • (9). The luminescence signals were detected on 2104 EnVision plate reader.

| IC50 (PI3K delta) [nM] | IC50 (PI3K gamma) [nM] | SMILES | further results |
| --- | --- | --- | --- |
| 72.5 | 2030 | CC(C)Oc1ncc(-c2nn(C(C)c3nc4ccc(F)cn4c(=O)c3-c3cccc(F)c3)c3ncnc(N)c23)s1 (stereo not drawn) [WX048] | – |
| 601 | 9860 | Cc1nc(C)c(-c2nn(C(C)c3nc4ccc(F)cn4c(=O)c3-c3cccc(F)c3)c3ncnc(N)c23)s1 (stereo not drawn) [WX022] | – |
| 461 | 1130 | CC(C)Oc1ncc(-c2nn(C(C)c3nc4ccc(F)cn4c(=O)c3-c3cccc(F)c3)c3ncnc(N)c23)cc1C#N (single isomer, unassigned) [WX025] | – |
| > 1000 | > 10000 | COc1ccc(-c2nn(C(C)c3nc4ccc(F)cn4c(=O)c3-c3cccc(F)c3)c3ncnc(N)c23)cc1F (stereo not drawn) [WX009] | – |
| 188 | 735 | CC(c1nc2ccc(F)cn2c(=O)c1-c1cccc(F)c1)n1nc(-c2cnc3c(c2)OCCO3)c2c(N)ncnc21 (stereo not drawn) [WX056] | Cmax [1]: 4950 nM; Oral DNAUC (dose-normalized area under curve) [1]: 2037 nM · h/mpk; IC50 (PI3K beta): > 10000 nM; IC50 (PI3K alpha): > 10000 nM |
| 604 | > 10000 | COc1ccc(-c2nn(C(C)c3nc4ccc(F)cn4c(=O)c3-c3cccc(F)c3)c3ncnc(N)c23)cn1 (single isomer, unassigned) [WX011] | – |
| 41.5 | 260 | CC(c1nc2ccc(F)cn2c(=O)c1-c1cccc(F)c1)n1nc(-c2cnc(OCC(F)F)s2)c2c(N)ncnc21 (stereo not drawn) [WX016] | IC50 (TMD-8 cell): 4110 nM; half-life [1]: 3.85 h; Cmax [1]: 2180 nM; Oral DNAUC (dose-normalized area under curve) [1]: 5599 nM · h/mpk |
| 330 | 2940 | CC(c1nc2ccc(F)cn2c(=O)c1-c1cccc(F)c1)n1nc(-c2cnc(OCC(F)(F)F)s2)c2c(N)ncnc21 (stereo not drawn) [WX028] | – |
| > 1000 | > 10000 | COc1ncc(-c2nn(C(C)c3nc4ccc(F)cn4c(=O)c3-c3cccc(F)c3)c3ncnc(N)c23)cc1C#N (single isomer, unassigned) [WX006] | – |
| 13.9 | 582 | Cc1ncc(-c2nn(C(C)c3nc4ccc(F)cn4c(=O)c3-c3cccc(F)c3)c3ncnc(N)c23)s1 (stereo not drawn) [WX050] | half-life [1]: 2.38 h; Cmax [1]: 1260 nM; Oral DNAUC (dose-normalized area under curve) [1]: 1513 nM · h/mpk |
| > 1000 | > 10000 | CC(C)Oc1ccc(-c2nn(C(C)c3nc4ccc(F)cn4c(=O)c3-c3cccc(F)c3)c3ncnc(N)c23)cn1 (single isomer, unassigned) [WX003] | – |
| 3.48 | 494 | CC(c1nc2ccc(F)cn2c(=O)c1-c1cccc(F)c1)n1nc(-c2cnc(N(C)C)s2)c2c(N)ncnc21 (stereo not drawn) [WX046] | half-life [1]: 1.73 h; Cmax [1]: 1560 nM; Oral DNAUC (dose-normalized area under curve) [1]: 1648 nM · h/mpk |
| 45.6 | 1190 | CC(c1nc2ccc(F)cn2c(=O)c1-c1cccc(F)c1)n1nc(-c2cnc(OC3CC3)s2)c2c(N)ncnc21 (stereo not drawn) [WX030] | – |
| 16.3 | 1740 | CC(c1nc2ccc(F)cn2c(=O)c1-c1cccc(F)c1)n1nc(-c2cnc(C(C)(C)C)s2)c2c(N)ncnc21 (stereo not drawn) [WX032] | half-life [1]: 18.4 h; Cmax [1]: 1500 nM; Oral DNAUC (dose-normalized area under curve) [1]: 2662 nM · h/mpk |
| 313 | 7170 | CC(C)Oc1ncc(-c2nn(C(C)c3nc4ccc(F)cn4c(=O)c3-c3cccc(F)c3)c3ncnc(N)c23)cc1C#N (single isomer, unassigned) [WX024] | – |
| 271 | 455 | Cc1cccc2nc(C(C)n3nc(-c4ccc(OC(C)C)c(F)c4)c4c(N)ncnc43)c(-c3cccc(F)c3)c(=O)n12 (stereo not drawn) [WX040] | – |
| 122 | 1550 | COCCOc1ncc(-c2nn(C(C)c3nc4ccc(F)cn4c(=O)c3-c3cccc(F)c3)c3ncnc(N)c23)s1 (stereo not drawn) [WX018] | IC50 (TMD-8 cell): 3420 nM; half-life [1]: 1.4 h; Cmax [1]: 2240 nM; Oral DNAUC (dose-normalized area under curve) [1]: 1244 nM · h/mpk |
| 491 | 275 | CC(c1nc2ccc(F)cn2c(=O)c1-c1cccc(F)c1)n1nc(-c2cnc(OC3CC(F)(F)C3)s2)c2c(N)ncnc21 (stereo not drawn) [WX020] | IC50 (TMD-8 cell): > 50000 nM |
| 229 | 620 | CC(C)Oc1ccc(-c2nn(C(C)c3nc4c(Cl)cc(F)cn4c(=O)c3-c3cccc(F)c3)c3ncnc(N)c23)cc1F (stereo not drawn) [WX014] | – |
| 297 | 573 | CC(C)Oc1ccc(-c2nn(C(C)c3nc4c(F)cccn4c(=O)c3-c3cccc(F)c3)c3ncnc(N)c23)cc1F (single isomer, unassigned) [WX013] | – |
| 783 | > 10000 | COc1ncc(-c2nn(C(C)c3nc4ccc(F)cn4c(=O)c3-c3cccc(F)c3)c3ncnc(N)c23)s1 (single isomer, unassigned) [WX008] | – |
| 66.6 | 1210 | CSc1ccc(-c2nn(C(C)c3nc4ccc(F)cn4c(=O)c3-c3cccc(F)c3)c3ncnc(N)c23)cn1 (stereo not drawn) [WX036] | – |
| > 1000 | > 10000 | CC(C)Oc1ccc(-c2nn(C(C)c3nc4ccc(F)cn4c(=O)c3-c3cccc(F)c3)c3ncnc(N)c23)cc1F (single isomer, unassigned) [WX002] | IC50 (PI3K beta; read-out: PI3Kβ IC50, ATP 40 μM, PIP2:3PS 50 μM, 120 min): > 10000 nM; IC50 (PI3K alpha; read-out: PI3Kα IC50, ATP 40 μM, PIP2:3PS 50 μM, 120 min): > 10000 nM |
| 4 | 408 | CNc1ncc(-c2nn(C(C)c3nc4ccc(F)cn4c(=O)c3-c3cccc(F)c3)c3ncnc(N)c23)s1 (stereo not drawn) [WX034] | – |
